Entries after “also recorded” stand apart in the source; their conditions may differ.
Key:
astrocytes = experiment: Viability assay, astrocytes; format: cell-based, mouse; settings: 1 h pre-treatment at indicated concentrations, LPS/IFNγ, 6 h after activation
Experimental: FIGS. 14a-g. B4GALT6 directly controls astrocyte activation. (a) Cultured astrocytes were pre-treated for 1 h with PDMP (25 μM), LacCer (10 μM), both (LacCer+PDMP), or vehicle control (vehicle), followed by activation with LPS/IFNγ for 6 h, or left un-treated (control, Con). mRNA expression was analyzed 6 h following activation. qPCR analysis of the expression of cc/5, csf2, nos2, il6, H2-Aa, and tlr2 presented relative to gapdh. Statistical analysis by one-way ANOVA, followed by Tukey post-hoc analysis. (b, c) Cultured astrocytes were pre-treated for 1 h with LacCer (b) or PDMP (c), at indicated concentrations, followed by activation with LPS/IFNγ, or left un-treated (control, Con). Cell viability was determined 6 h after activation. […] Astrocytes were then pre-treated for 1 h with PDMP, or vehicle control (vehicle), followed by activation with LPS/IFNγ for 6 h, or left un-treated (control, Con). mRNA expression for H2-Aa, Ccl5 and Cxcl10 was determined; expression is presented as fold induction relative to housekeeping gene (Gapdh). […] (f) NF-κB (P65), GAPDH, and Lamin B expression, in cytoplasmic and nuclear fractions analyzed by western blot. The degree of NF-κB translocation to the nucleus was assessed by the ratio between the expression of P65 in nuclear and cytoplasmic fractions following densitometric quantification on four independent experiments (Right panel). […]

primary mouse microglia = experiment: Response of primary microglia to LPS/IFNγ (nCounter); format: cell-based; settings: absence of astrocytes, LPS/IFNγ 6 h
Source text: FIGS. 5a-m. B4GALT6 in astrocytes regulates the activation of microglia and CNS-infiltrating monocytes. (a) Heatmap depicting mRNA expression, as determined by nCounter Nanostring analysis, in microglia from naïve or EAE NOD mice treated with PDMP or vehicle. Representative data of three independent experiments. Statistical analysis by Student's t-test. (b) qPCR analysis of ccl5, il1b, opn, nos2, cd40, and H2-Aa gene expression relative to Gapdh. (c, d) Mean normalized expression of genes associated with M1- or M2-phenotype in microglia (Table 3) (c) and Ly6C^high monocytes (d). Statistical analysis by Student's t-test. (e-h) primary microglia were pre-treated with PDMP, LacCer, or vehicle, followed by activation with LPS/IFNγ for 6 h or left un-treated (control) as in (FIG. 3a). mRNA expression was determined by nCounter Nanostring analysis (e, g), and microglial viability was determined (f, h). Representative data of five independent experiments. […] RNA was harvested from microglia treated in the absence [MG (pure)] or presence [MG (mixed)] of astrocytes and gene expression was analyzed by qPCR for the expression ccl2, ccl5 and nos2 relative to gapdh. […] Microglia were isolated as in (i), and microglial-nos2 expression was determined by qRT relative to gapdh and presented as in (i). […]

Compound	astrocyte viability (astrocytes)	response of cultured primary mouse microglia to LPS/IFNγ (primary mouse microglia)
CCCCCCCCCC(=O)N[C@H](CN1CCOCC1)[C@H](O)c1ccccc1 [PDMP, D-threo-1-phenyl-2-decanoylamino-3-morpholino-1-propanol]	did not affect astrocyte viability; also recorded: no significant cells death	neither the viability nor the response of cultured primary mouse microglia to LPS/IFNγ was affected
lactosylceramide [LacCer]	did not affect astrocyte viability; also recorded: no significant cells death	neither the viability nor the response of cultured primary mouse microglia to LPS/IFNγ was affected

Reference: patent US9927437B2, “Treating neurodegenerative disease” (THE BRIGHAM AND WOMEN'S HOSPITAL, INC., priority 2013, dated 2018)
